pIC50: −log10 of the molar value. Where a name gives a salt, the structure may show the parent alone.

In one experiment the test system is 4 PI3K isoforms (Human recombinant GST-PI3K). In words: PI3K scintillation proximity assay, best IC50 obtained with the four isoforms (alpha, beta, delta, gamma). Format: biochemical. The following applies: best IC50 obtained with the four isoforms of PI3K; read-out: Best potency measured on the 4 PI3K isoforms.
For `COc1ccc2c(c1)S(=O)(=O)Cc1c(C(=O)N3CCOCC3)nn([C@@H]3CCCN(CCC4CCOCC4)C3)c1-2` (single isomer, unassigned) [Example 373], the pIC50 is 4.99. Still for that read-out and setting: the result for `COc1ccccc1-n1nc(C(=O)N2CCOCC2)c2c1-c1ccccc1S(=O)(=O)C2` [Example 313, 1-(2-Methoxyphenyl)-3-(morpholin-4-ylcarbonyl)-1,4-dihydrothiochromeno[4,3-c]pyrazole 5,5-dioxide] reads 4.83.

In the case of `CN(C)CC(C)(C)c1ccc(-n2nc(C(=O)N3CCOCC3)c3c2-c2ccccc2S(=O)(=O)C3)cc1` [Example 458, N,N,2-Trimethyl-2-{4-[3-(morpholin-4-ylcarbonyl)-5,5-dioxidothiochromeno[4,3-c]pyrazol-1(4H)-yl]phenyl}propan-1-amine hydrochloride], the pIC50 is 6.80. In the case of `O=C(c1nn([C@H]2CCCN(C3CCCOC3)C2)c2c1CS(=O)(=O)c1ncccc1-2)N1CCOCC1` (single isomer, unassigned) [Example 381, 3-(morpholin-4-ylcarbonyl)-1-[1-(tetrahydro-2H-pyran-3-yl)piperidin-3-yl]-1,4-dihydropyrazolo[3′,4′:4,5]thiopyrano[2,3-b]pyridine 5,5-dioxide], the pIC50 was 7.44. For `CC1CN(Cc2ccc(-n3nc(C(=O)N4CCOCC4)c4c3-c3ccccc3S(=O)(=O)C4)cc2)CCO1` (centres unmarked) [Example 432, 1-{4-[(2-Methylmorpholin-4-yl)methyl]phenyl}-3-(morpholin-4-ylcarbonyl)-1,4-dihydrothiochromeno[4,3-c]pyrazole 5,5-dioxide], the pIC50 was 6.98.

As for `O=C(c1nn(C2CCCN(CCF)C2)c2c1CS(=O)(=O)c1ccccc1-2)N1CCOCC1` (single isomer, unassigned) [Example 221, 1-[1-(2-fluoroethyl)piperidin-3-yl]-3-(morpholin-4-ylcarbonyl)-1,4-dihydrothiochromeno[4,3-c]pyrazole 5,5-dioxide], the pIC50 was 6.49. `O=C(c1nn(C2CCCN(CCc3ccccc3)C2)c2c1CS(=O)(=O)c1ccccc1-2)N1CCOCC1` (centres unmarked) [Example 219, 3-(Morpholin-4-ylcarbonyl)-1-[1-(2-phenylethyl)piperidin-3-yl]-1,4-dihydrothiochromeno[4,3-c]pyrazole 5,5-dioxide]: the pIC50 was 6.15.

For the compound `O=C(c1ccc(-n2nc(C(=O)N3CCOCC3)c3c2-c2ccccc2S(=O)(=O)C3)cc1)N1CCOCC1` [Example 147, 3-(Morpholin-4-ylcarbonyl)-1-[4-(morpholin-4-ylcarbonyl)phenyl]-1,4-dihydrothiochromeno[4,3-c]pyrazole 5,5-dioxide], the pIC50 was 6.56.

In the case of `COC1CCN(Cc2cccc(-n3nc(C(=O)N4CCOCC4)c4c3-c3ccccc3S(=O)(=O)C4)c2)C1` (centres unmarked) [Example 266, 1-{3-[(3-Methoxypyrrolidin-1-yl)methyl]phenyl}-3-(morpholin-4-ylcarbonyl)-1,4-dihydrothiochromeno[4,3-c]pyrazole 5,5-dioxide], the pIC50 was 6.46. Still for that read-out and setting: the result for `COC(=O)c1ccc(Cn2nc(C(=O)N3CCOCC3)c3c2-c2ccccc2S(=O)(=O)C3)o1` [Example 231, Methyl 5-{[3-(morpholin-4-ylcarbonyl)-5,5-dioxidothiochromeno[4,3-c]pyrazol-1(4H)-yl]methyl}-2-furoate] reads 6.37; that for `O=C(c1n[nH]c2c1CS(=O)(=O)c1ccccc1-2)N1CCOCC1` [Example 3, 3-(morpholin-4-ylcarbonyl)-2,4-dihydrothiochromeno[4,3-c]pyrazole 5,5-dioxide], 5.54; that for `COC(=O)CCN1CCC[C@H](n2nc(C(=O)N3CCOCC3)c3c2-c2ccccc2S(=O)(=O)C3)C1` (single isomer, unassigned) [Example 433, methyl 3-{3-[3-(morpholin-4-ylcarbonyl)-5,5-dioxidothiochromeno[4,3-c]pyrazol-1(4H)-yl]piperidin-1-yl}propanoate], 7.32. The same measure, in the same setting: the result for `COC1CN(Cc2cccc(-n3nc(C(=O)N4CCOCC4)c4c3-c3ccccc3S(=O)(=O)C4)c2)C1` [Example 262, 1-{3-[(3-Methoxyazetidin-1-yl)methyl]phenyl}-3-(morpholin-4-ylcarbonyl)-1,4-dihydrothiochromeno[4,3-c]pyrazole 5,5-dioxide] reads 6.56; that for `O=C(c1nn(-c2ccccc2Br)c2c1CS(=O)(=O)c1ccccc1-2)N1CCOCC1` [Example 20, 1-(2-bromophenyl)-3-(morpholin-4-ylcarbonyl)-1,4-dihydrothiochromeno[4,3-c]pyrazole 5,5-dioxide], 5.26. The same measure, in the same setting: the result for `O=C(c1nn(-c2cccc(-c3cccnc3)c2)c2c1CS(=O)(=O)c1ccccc1-2)N1CCOCC1` [Example 198, 3-(Morpholin-4-ylcarbonyl)-1-(3-pyridin-3-ylphenyl)-1,4-dihydrothiochromeno[4,3-c]pyrazole 5,5-dioxide] reads 6.55; that for `Cc1cccc(-n2nc(C(=O)N3CCOCC3)c3c2-c2ccccc2S(=O)(=O)C3)c1` [Example 6, 1-(3-methylphenyl)-3-(morpholin-4-ylcarbonyl)-1,4-dihydrothiochromeno[4,3-c]pyrazole 5,5-dioxide], 6.03; that for `CS(=O)(=O)c1ccc(-n2nc(C(=O)N3CCOCC3)c3c2-c2ccccc2S(=O)(=O)C3)cc1` [Example 130, 1-[4-(Methylsulfonyl)phenyl]-3-(morpholin-4-ylcarbonyl)-1,4-dihydrothiochromeno[4,3-c]pyrazole 5,5-dioxide], 5.34. For `O=C(c1nn(C2CCCN(CCN3CCOCC3)C2)c2c1CS(=O)(=O)c1c(F)cccc1-2)N1CCOCC1` (centres unmarked) [Example 413, 6-fluoro-3-(morpholin-4-ylcarbonyl)-1-[1-(2-morpholin-4-ylethyl)piperidin-3-yl]-1,4-dihydrothiochromeno[4,3-c]pyrazole 5,5-dioxide], the pIC50 was 7.80. On to `O=C(c1nn(C2CCN(CCN3CC[C@H](F)C3)C2)c2c1CS(=O)(=O)c1ccccc1-2)N1CCOCC1` (stereo partly drawn) [Example 310, 1-(1-{2-[(3S)-3-Fluoropyrrolidin-1-yl]ethyl}pyrrolidin-3-yl)-3-(morpholin-4-ylcarbonyl)-1,4-dihydrothiochromeno[4,3-c]pyrazole 5,5-dioxide], for which the pIC50 was 6.72.

With `CN(C)CCn1nc(C(=O)N2CCOCC2)c2c1-c1ccccc1S(=O)(=O)C2` [Example 42, N,N-dimethyl-2-[3-(morpholin-4-ylcarbonyl)-5,5-dioxidothiochromeno[4,3-c]pyrazol-1(4H)-yl]ethanamine], the pIC50 is 5.82.

As to `O=C(c1nn([C@H]2CCCN(C3CCOCC3)C2)c2c1CS(=O)(=O)c1ccccc1-2)N1CCOCC1` (stereo in doubt) [Example 374, 3-(morpholin-4-ylcarbonyl)-1-[1-(tetrahydro-2H-pyran-4-yl)piperidin-3-yl]-1,4-dihydrothiochromeno[4,3-c]pyrazole 5,5-dioxide], the pIC50 was 7.10.

On to `O=C(c1nn(C2CCOCC2)c2c1CS(=O)(=O)c1sccc1-2)N1CCOCC1` [Example 246, 3-(Morpholin-4-ylcarbonyl)-1-(tetrahydro-2H-pyran-4-yl)-1,4-dihydrothieno[3′,2′:5,6]thiopyrano[4,3-c]pyrazole 5,5-dioxide], for which the pIC50 was 6.08.

Consider `CC(=O)Nc1cccc2c1S(=O)(=O)Cc1c(C(=O)N3CCOCC3)nn(-c3ccccc3)c1-2` [Example 322], for which the pIC50 is 5.01. The same measure, in the same setting: the result for `O=C(c1nn(C2CCCN(CCN3CCOCC3)C2)c2c1CS(=O)(=O)c1ccccc1-2)N1CCOCC1` (centres unmarked) [Example 175, 3-(Morpholin-4-ylcarbonyl)-1-[1-(2-morpholin-4-ylethyl)piperidin-3-yl]-1,4-dihydrothiochromeno[4,3-c]pyrazole 5,5-dioxide] reads 6.91; that for `O=C(c1nn(C2CCCN(CCN3CCCC(F)(F)C3)C2)c2c1CS(=O)(=O)c1ccccc1-2)N1CCOCC1` (centres unmarked) [Example 284, 1-{1-[2-(3,3-Difluoropiperidin-1-yl)ethyl]piperidin-3-yl}-3-(morpholin-4-ylcarbonyl)-1,4-dihydrothiochromeno[4,3-c]pyrazole 5,5-dioxide], 7.08; that for `O=C(c1nn([C@H]2CCCN(C3CCCNC3)C2)c2c1CS(=O)(=O)c1ccccc1-2)N1CCOCC1` (some centres unmarked) [Example 469], 7.60. With `O=C(c1nn(-c2cccc(-c3cnn(CCN4CCOCC4)c3)c2)c2c1CS(=O)(=O)c1ccccc1-2)N1CCOCC1` [Example 188, 3-(Morpholin-4-ylcarbonyl)-1-{3-[1-(2-morpholin-4-ylethyl)-1H-pyrazol-4-yl]phenyl)-1,4-dihydrothiochromeno[4,3-c]pyrazole 5,5-dioxide], the pIC50 was 6.47. Regarding `O=C(c1nn(C2CCCN(CCN3CC[C@@H](F)C3)C2)c2c1CS(=O)(=O)c1ccccc1-2)N1CCOCC1` (single isomer, unassigned) [Example 283], the pIC50 is 7.47. `COCCN1CCC(Cn2nc(C(=O)N3CCOCC3)c3c2-c2ccccc2S(=O)(=O)C3)CC1` [Example 190, 1-{[1-(2-Methoxyethyl)piperidin-4-yl]methyl}-3-(morpholin-4-ylcarbonyl)-1,4-dihydrothiochromeno[4,3-c]pyrazole 5,5-dioxide]: the pIC50 is 6.17. On to `O=C(c1nn([C@H]2CCCN(CCN3CCC(O)CC3)C2)c2c1CS(=O)(=O)c1ccccc1-2)N1CCOCC1` (stereo in doubt) [Example 463, 1-(2-{3-[3-(morpholin-4-ylcarbonyl)-5,5-dioxidothiochromeno[4,3-c]pyrazol-1(4H)-yl]piperidin-1-yl}ethyl)piperidin-4-ol], for which the pIC50 was 7.74. On the same count and under the same terms, for `O=C(c1nn(-c2ccccc2)c2c1CS(=O)(=O)c1ccncc1-2)N1CCOCC1` [Example 150, 3-(Morpholin-4-ylcarbonyl)-1-phenyl-1,4-dihydropyrazolo[3′,4′:4,5]thiopyrano[3,2-c]pyridine 5,5-dioxide] the value was 5.52.

Staying with this experiment, now noted: inhibition at 20 μM.
Consider `CN(C)Cc1cccc2c1S(=O)(=O)Cc1c(C(=O)N3CCOCC3)nn(-c3ccccc3)c1-2` [Example 320], for which the “Best potency measured on the 4 PI3K isoforms, % inh @20 μM” value stood at 32% inh @20 μM.

Values taken from patent publication US9073940B2, “Tricyclic pyrazol amine derivatives” (MERCK SERONO SA, priority 2009, dated 2015).
